pIC50: −log10 of the molar value.

In experiment [1] the target is T1, Mitogen-activated protein kinase kinase kinase 5 (Homo sapiens, UniProt Q99683).
T1 sequence (Q99683 whole entry): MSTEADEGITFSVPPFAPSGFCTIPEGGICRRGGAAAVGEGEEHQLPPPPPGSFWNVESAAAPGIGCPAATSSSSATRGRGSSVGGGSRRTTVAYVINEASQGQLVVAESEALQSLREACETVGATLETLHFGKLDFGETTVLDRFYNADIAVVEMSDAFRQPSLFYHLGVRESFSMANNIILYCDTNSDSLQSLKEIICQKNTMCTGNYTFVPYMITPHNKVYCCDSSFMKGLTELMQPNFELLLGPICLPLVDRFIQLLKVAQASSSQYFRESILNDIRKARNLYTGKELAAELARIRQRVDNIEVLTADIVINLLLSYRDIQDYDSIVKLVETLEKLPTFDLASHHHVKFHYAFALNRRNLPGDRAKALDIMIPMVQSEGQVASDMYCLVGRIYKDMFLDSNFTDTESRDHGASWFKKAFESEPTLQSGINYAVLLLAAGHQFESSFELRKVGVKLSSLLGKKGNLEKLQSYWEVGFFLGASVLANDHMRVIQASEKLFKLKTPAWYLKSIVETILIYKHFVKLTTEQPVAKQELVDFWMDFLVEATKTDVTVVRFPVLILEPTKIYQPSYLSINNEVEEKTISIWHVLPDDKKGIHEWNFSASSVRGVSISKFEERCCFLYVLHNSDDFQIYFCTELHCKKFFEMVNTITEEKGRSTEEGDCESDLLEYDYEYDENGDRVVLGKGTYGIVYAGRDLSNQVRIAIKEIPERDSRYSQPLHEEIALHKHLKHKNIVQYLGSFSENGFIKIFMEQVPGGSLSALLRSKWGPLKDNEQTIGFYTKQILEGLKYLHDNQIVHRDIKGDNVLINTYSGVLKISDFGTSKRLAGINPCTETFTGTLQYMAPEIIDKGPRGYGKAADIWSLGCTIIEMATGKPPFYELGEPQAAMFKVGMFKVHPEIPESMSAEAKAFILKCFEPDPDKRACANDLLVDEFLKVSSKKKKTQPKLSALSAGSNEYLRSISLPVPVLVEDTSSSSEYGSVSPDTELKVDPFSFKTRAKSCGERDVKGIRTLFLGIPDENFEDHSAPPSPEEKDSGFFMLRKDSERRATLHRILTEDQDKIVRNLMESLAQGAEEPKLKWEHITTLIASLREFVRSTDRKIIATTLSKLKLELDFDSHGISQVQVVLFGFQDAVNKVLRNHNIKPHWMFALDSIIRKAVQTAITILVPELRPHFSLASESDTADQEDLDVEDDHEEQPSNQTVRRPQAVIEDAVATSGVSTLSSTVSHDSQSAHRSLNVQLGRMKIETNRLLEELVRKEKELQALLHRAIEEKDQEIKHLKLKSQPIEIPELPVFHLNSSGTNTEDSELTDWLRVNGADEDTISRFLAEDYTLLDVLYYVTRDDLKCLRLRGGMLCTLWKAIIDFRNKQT
The experiment in a line: Inhibition of ASK1 (unknown origin).

The target in a further experiment is CDK2/Cyclin A2 (Homo sapiens, UniProt P24941). The experiment in a line: Inhibition of full length human recombinant CDK2/Cyclin A using histone H1 as substrate incubated for 40 mins in presence of [gamma-33ATP] by radiometric scintillation counting analysis. The experiment is classed as protein-complex assay.
Experiment [2] can be described thus: Inhibition of human full length recombinant CDK9/cyclin T1 using KTFCGTPEYLAPE as substrate incubated for 40 mins in presence of [gamma-33ATP] by radiometric scintillation counting analysis.
Experiment [3] deals with Glycogen synthase kinase-3 beta (Homo sapiens, UniProt P49841). Nature of the experiment: Inhibition of human recombinant GSK3 beta H350L mutant using YRRAAVPPSPSLSR as substrate incubated for 40 mins in presence of [gamma-33ATP] by radiometric scintillation counting analysis.
The subject of experiment [4] is HepG2. Nature of the experiment: Induction of cell cycle arrest in human HepG2 cells assessed as accumulation at G2/M phase at 0.5 uM incubated for 24 hrs by propidium iodide staining based flow cytometry (reference value: 33.49%). It counts as functional. In general terms: A flow cytometer gives signals particle by particle.
Experiment [5] relates to HepG2. Nature of the experiment: Induction of cell cycle arrest in human HepG2 cells assessed as accumulation at S phase at 0.5 uM incubated for 24 hrs by propidium iodide staining based flow cytometry (reference value: 33.27%). The experiment is classed as functional.
The test system of experiment [6] is HepG2. Nature of the experiment: Induction of cell cycle arrest in human HepG2 cells assessed as accumulation at G0/G1 phase at 1 uM incubated for 24 hrs by propidium iodide staining based flow cytometry (reference value: 38.34%). The experiment is classed as functional.
For experiment [7], the system named is HepG2. The experiment in a line: Induction of cell cycle arrest in human HepG2 cells assessed as accumulation at S phase at 1 uM incubated for 24 hrs by propidium iodide staining based flow cytometry (reference value: 33.27%). The experiment is classed as functional.
Experiment [8] relates to HepG2. The experiment in a line: Induction of cell cycle arrest in human HepG2 cells assessed as accumulation at G2/M phase at 1 uM incubated for 24 hrs by propidium iodide staining based flow cytometry (reference value: 33.49%). The experiment is classed as functional.
The test system of experiment [9] is HepG2. The experiment in a line: Induction of cell cycle arrest in human HepG2 cells assessed as accumulation at G0/G1 phase at 2 uM incubated for 24 hrs by propidium iodide staining based flow cytometry (reference value: 38.34%). The experiment is classed as functional.
Experiment [10] concerns HepG2. The experiment in a line: Induction of cell cycle arrest in human HepG2 cells assessed as accumulation at S phase at 2 uM incubated for 24 hrs by propidium iodide staining based flow cytometry (reference value: 33.27%). The experiment is classed as functional.
In experiment [11] the test system is HepG2. The experiment in a line: Induction of cell cycle arrest in human HepG2 cells assessed as accumulation at G2/M phase at 2 uM incubated for 24 hrs by propidium iodide staining based flow cytometry (reference value: 33.49%). The experiment is classed as functional.
Experiment [12] concerns HepG2. The experiment in a line: Induction of cell cycle arrest in human HepG2 cells assessed as accumulation at G0/G1 phase at 4 uM incubated for 24 hrs by propidium iodide staining based flow cytometry (reference value: 38.34%). It counts as functional.
Experiment [13] deals with HepG2. Nature of the experiment: Induction of cell cycle arrest in human HepG2 cells assessed as accumulation at S phase at 4 uM incubated for 24 hrs by propidium iodide staining based flow cytometry (reference value: 33.27%). It counts as functional.
For experiment [14], the system named is HepG2. The experiment in a line: Induction of cell cycle arrest in human HepG2 cells assessed as accumulation at G2/M phase at 4 uM incubated for 24 hrs by propidium iodide staining based flow cytometry (reference value: 33.49%). It counts as functional.
In experiment [15] the test system is HepG2. The experiment in a line: Induction of cell cycle arrest in human HepG2 cells assessed as accumulation at G0/G1 phase at 8 uM incubated for 24 hrs by propidium iodide staining based flow cytometry (reference value: 38.34%). The experiment is classed as functional.
The test system of experiment [16] is HepG2. The experiment in a line: Induction of cell cycle arrest in human HepG2 cells assessed as accumulation at S phase at 8 uM incubated for 24 hrs by propidium iodide staining based flow cytometry (reference value: 33.27%). It counts as functional.
Experiment [17] has as its system HepG2. The experiment in a line: Induction of cell cycle arrest in human HepG2 cells assessed as accumulation at G2/M phase at 8 uM incubated for 24 hrs by propidium iodide staining based flow cytometry (reference value: 33.49%). It counts as functional.
Experiment [18] has as its system HepG2. Nature of the experiment: Induction of cell cycle arrest in human HepG2 cells assessed as accumulation at G0/G1 phase at 16 uM incubated for 24 hrs by propidium iodide staining based flow cytometry (reference value: 38.34%). It counts as functional.

Chain of Glycogen synthase kinase-3 beta (P49841 whole entry): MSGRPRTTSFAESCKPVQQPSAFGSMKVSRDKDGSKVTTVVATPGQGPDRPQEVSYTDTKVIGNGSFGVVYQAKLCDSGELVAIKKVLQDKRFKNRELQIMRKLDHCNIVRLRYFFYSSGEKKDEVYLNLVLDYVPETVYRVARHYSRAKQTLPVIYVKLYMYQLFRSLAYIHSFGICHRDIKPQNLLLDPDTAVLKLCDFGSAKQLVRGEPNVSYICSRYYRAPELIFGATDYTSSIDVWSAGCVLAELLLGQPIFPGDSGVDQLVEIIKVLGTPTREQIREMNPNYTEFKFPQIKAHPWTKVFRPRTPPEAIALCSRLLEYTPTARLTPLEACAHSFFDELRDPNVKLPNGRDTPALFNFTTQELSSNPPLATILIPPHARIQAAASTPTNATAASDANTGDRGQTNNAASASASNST

As to `C[C@H](CO)n1cnnc1-c1cccc(NC(=O)Nc2cc3ccccn3n2)n1`, the pIC50 – broadly, the IC50 on a negative log10 scale, so that one unit is a factor of ten – in [1] is 7.47; at CDK2/Cyclin A2, 6.45; in experiment [2] it was 7.03; in experiment [3], 6.55. The Activity came to 27.33% in the experiment with HepG2 [4]; 31.94% in the experiment on HepG2 [5]; 60.13% with HepG2 [6]; 11.7% in the experiment on HepG2 [7]; 30.59% in the experiment with HepG2 [8]; 63.79% in the experiment with HepG2 [9]. Also, the Activity in the experiment with HepG2 [10] worked out at 7.15%; in the experiment with HepG2 [11], 34.32%; with HepG2 [12], 66.33%; in the experiment with HepG2 [13] it was 7.9%; in the experiment with HepG2 [14], 34.25%; in the experiment with HepG2 [15] it was 66.65%. In addition, the Activity was 8.95% in the experiment on HepG2 [16], 35.02% with HepG2 [17] and 69.77% in the experiment on HepG2 [18].
